The results in this text go back to ChEMBL document CHEMBL4414570, “Indole-Diterpenoids with Protein Tyrosine Phosphatase Inhibitory Activities from the Marine-Derived Fungus Penicillium sp. KFD28” (J Nat Prod, 2019).

The source made the active and inactive calls. The rule behind the calls is not given here.

One experiment deals with A549. The experiment in a line: Cytotoxicity against human A549 cells assessed as cell viability incubated for 48 hrs by MTT assay. Format: functional, cell-based.
Experiment [1] addresses Dual specificity protein phosphatase 3 (Homo sapiens) (UniProt P51452). Nature of the experiment: Inhibition of recombinant human VHR expressed in Escherichia coli using p-nitrophenyl phosphate as substrate preincubated for 15 mins followed by substrate addition and measured after 60 mins.
The subject of a further experiment is SGC-7901. Nature of the experiment: Cytotoxicity against human SGC7901 cells assessed as cell viability incubated for 48 hrs by MTT assay. Type of experiment: functional, cell-based.
Experiment [2] has as its target T1, Tyrosine-protein phosphatase non-receptor type 1 (Homo sapiens, UniProt P18031).
T1 sequence (P18031 whole entry): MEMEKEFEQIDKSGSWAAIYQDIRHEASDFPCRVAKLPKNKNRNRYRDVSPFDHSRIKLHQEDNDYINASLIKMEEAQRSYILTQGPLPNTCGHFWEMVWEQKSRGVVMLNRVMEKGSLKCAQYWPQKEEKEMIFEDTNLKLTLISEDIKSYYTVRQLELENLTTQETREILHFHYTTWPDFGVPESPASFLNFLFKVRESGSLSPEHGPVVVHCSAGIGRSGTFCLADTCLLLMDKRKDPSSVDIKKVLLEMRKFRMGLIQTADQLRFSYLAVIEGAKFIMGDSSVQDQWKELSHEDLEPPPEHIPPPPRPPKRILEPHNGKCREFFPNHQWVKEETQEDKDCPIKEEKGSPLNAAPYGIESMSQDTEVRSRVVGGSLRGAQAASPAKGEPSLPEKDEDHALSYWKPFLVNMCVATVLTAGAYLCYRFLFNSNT
Nature of the experiment: Inhibition of recombinant human PTP1B expressed in Escherichia coli using p-nitrophenyl phosphate as substrate preincubated for 15 mins followed by substrate addition and measured after 60 mins.

The subject of another experiment is K562. Nature of the experiment: Cytotoxicity against human K562 cells assessed as cell viability incubated for 48 hrs by MTT assay. Format: functional, cell-based.
For experiment [3], the target named is T2, Tyrosine-protein phosphatase non-receptor type 2 (Homo sapiens, UniProt P17706).
T2 sequence (P17706 whole entry): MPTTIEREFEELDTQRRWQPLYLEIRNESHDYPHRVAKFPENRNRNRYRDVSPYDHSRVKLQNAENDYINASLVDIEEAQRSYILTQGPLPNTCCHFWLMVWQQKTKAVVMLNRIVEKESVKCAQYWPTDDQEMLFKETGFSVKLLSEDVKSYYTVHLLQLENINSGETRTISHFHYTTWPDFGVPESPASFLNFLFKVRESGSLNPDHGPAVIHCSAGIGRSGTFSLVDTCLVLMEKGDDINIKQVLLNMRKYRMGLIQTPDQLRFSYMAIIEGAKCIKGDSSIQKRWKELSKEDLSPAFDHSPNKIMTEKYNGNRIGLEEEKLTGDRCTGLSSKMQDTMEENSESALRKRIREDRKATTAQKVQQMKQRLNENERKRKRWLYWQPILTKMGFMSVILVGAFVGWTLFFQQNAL
Nature of the experiment: Inhibition of recombinant human TCPTP expressed in Escherichia coli using p-nitrophenyl phosphate as substrate preincubated for 15 mins followed by substrate addition and measured after 60 mins.

In a further experiment the test system is HeLa. The experiment in a line: Cytotoxicity against human HeLa cells assessed as cell viability incubated for 48 hrs by MTT assay. Type of experiment: functional, cell-based.
Experiment [4] addresses Receptor-type tyrosine-protein phosphatase S (Homo sapiens, UniProt Q13332). Nature of the experiment: Inhibition of recombinant human PTPsigma expressed in Escherichia coli using p-nitrophenyl phosphate as substrate preincubated for 15 mins followed by substrate addition and measured after 60 mins.

Dual specificity protein phosphatase 3 (Homo sapiens), sequence (P51452 whole entry, looked up): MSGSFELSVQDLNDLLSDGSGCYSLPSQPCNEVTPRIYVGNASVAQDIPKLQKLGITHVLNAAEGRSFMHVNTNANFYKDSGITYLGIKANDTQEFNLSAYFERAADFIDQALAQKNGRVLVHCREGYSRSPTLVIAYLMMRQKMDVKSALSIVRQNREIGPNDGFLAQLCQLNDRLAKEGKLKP
Receptor-type tyrosine-protein phosphatase S, sequence (Q13332 whole entry): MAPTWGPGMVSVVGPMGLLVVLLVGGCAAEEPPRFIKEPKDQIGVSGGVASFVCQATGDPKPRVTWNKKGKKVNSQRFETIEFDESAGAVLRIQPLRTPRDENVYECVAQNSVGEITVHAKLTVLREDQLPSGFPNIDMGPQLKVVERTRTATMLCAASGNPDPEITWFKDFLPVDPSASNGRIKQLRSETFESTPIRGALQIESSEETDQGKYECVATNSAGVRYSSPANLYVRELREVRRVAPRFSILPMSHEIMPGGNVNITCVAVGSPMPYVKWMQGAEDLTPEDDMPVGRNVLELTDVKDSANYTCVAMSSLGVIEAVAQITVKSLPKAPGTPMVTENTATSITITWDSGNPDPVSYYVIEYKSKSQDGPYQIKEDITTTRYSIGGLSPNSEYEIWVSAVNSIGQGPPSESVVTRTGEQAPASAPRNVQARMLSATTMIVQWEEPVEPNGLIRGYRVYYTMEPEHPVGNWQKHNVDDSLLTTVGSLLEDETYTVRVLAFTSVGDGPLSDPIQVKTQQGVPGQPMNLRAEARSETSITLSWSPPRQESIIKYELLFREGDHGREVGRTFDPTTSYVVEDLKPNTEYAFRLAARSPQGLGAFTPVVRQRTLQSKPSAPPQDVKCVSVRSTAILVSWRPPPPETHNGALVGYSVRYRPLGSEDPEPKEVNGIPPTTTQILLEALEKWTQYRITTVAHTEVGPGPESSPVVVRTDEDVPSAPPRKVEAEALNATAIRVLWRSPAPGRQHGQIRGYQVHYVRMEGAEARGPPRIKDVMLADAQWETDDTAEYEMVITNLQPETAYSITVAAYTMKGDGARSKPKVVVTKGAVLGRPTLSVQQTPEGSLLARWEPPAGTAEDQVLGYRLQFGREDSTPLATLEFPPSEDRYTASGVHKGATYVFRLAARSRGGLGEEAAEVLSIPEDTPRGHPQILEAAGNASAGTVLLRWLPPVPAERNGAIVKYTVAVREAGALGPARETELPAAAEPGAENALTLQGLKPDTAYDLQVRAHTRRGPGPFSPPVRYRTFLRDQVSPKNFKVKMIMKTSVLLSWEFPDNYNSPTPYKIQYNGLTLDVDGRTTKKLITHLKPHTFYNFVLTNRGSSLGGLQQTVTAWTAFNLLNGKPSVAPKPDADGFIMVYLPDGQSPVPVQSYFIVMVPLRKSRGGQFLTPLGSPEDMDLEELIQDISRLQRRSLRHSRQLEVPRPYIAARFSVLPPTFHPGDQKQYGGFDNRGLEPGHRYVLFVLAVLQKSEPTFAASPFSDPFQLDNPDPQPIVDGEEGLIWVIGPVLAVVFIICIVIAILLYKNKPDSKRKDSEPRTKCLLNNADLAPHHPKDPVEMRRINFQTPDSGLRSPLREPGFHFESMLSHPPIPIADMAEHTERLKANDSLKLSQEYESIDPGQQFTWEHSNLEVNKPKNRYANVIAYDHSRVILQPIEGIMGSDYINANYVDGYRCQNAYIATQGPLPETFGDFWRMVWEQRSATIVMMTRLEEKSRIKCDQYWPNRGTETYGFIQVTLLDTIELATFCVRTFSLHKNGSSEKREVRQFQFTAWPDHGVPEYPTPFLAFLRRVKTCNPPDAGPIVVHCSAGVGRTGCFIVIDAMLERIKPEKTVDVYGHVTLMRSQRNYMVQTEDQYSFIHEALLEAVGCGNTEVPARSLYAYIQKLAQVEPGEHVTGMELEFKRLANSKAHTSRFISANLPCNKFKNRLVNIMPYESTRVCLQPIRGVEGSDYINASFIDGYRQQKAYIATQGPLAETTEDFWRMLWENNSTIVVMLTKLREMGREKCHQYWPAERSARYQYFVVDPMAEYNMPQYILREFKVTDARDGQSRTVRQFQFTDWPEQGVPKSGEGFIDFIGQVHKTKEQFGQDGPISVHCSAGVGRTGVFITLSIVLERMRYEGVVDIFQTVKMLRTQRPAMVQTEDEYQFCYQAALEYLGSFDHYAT

As to `CC(C)(O)[C@H]1O[C@H]2CC[C@@]3(C)[C@@](O)(CC[C@H]4C(=O)c5c([nH]c6ccccc56)[C@@]43C)C2=CC1=O`, the result in the experiment with A549, with SGC-7901, in the experiment on K562 and in the experiment on HeLa was inactive. Moreover, the inhibition result in experiment [1] was “inactive”. The values for the half-maximal inhibitory concentration (IC50) in experiment [2] and in experiment [3] were 23 µM and 35 µM, respectively.

On to `CC1(C)O[C@@]23CC[C@@]4(C)[C@@](O)(CC[C@H]5Cc6c([nH]c7ccccc67)[C@@]54C)C2=CC(=O)[C@H]1O3`, for which the result in the experiment on A549, in the experiment on SGC-7901, with K562 and in the experiment with HeLa was inactive. Also, in experiment [1], the inhibition result is “inactive”.

With `CC(C)(O)[C@H]1O[C@@]2(O)CC[C@@]3(C)C(=CC[C@H]4Cc5c([nH]c6ccccc56)[C@@]43C)C2=CC1=O`, the result in the experiment with A549, with SGC-7901, in the experiment on K562 and in the experiment on HeLa was inactive. Moreover, in experiment [1], the inhibition entry was “inactive”. The figures for the IC50 in experiment [2] and in experiment [3] were 13 µM and 37 µM, respectively.

With `CC(C)(O)[C@H]1O[C@H]2CC[C@@]3(C)[C@@](O)(CC[C@@H](CC(=O)c4ccccc4N)[C@]3(C)C(=O)O)C2=CC1=O`, the outcome with A549, in the experiment on SGC-7901, with K562 and with HeLa was inactive. Moreover, the inhibition entry in experiment [1] was “inactive”.

For the compound `CC(C)(O)[C@@H]1CC[C@]2(C=O)[C@H](CC[C@@]3(C)[C@H]2CC[C@H]2Cc4c([nH]c5ccccc45)[C@@]23C)O1`, the result in the experiment with A549, in the experiment on SGC-7901, in the experiment with K562 and in the experiment with HeLa was inactive. In experiment [1], the inhibition result is “inactive”.

On to `CC1(C)C[C@H]2[C@@H]3C(=O)CC[C@]4(C)[C@@]5(C)c6[nH]c7ccccc7c6C[C@@H]5CC[C@@]34O[C@@]2(O)[C@@H]1O`, for which the result in the experiment on A549, in the experiment with SGC-7901, in the experiment on K562 and in the experiment with HeLa was inactive. In addition, the inhibition entry in experiment [1] is “inactive”. Moreover, the half-maximal inhibitory concentration (IC50) in experiment [4] amounted to 38 µM; in experiment [2] it was 14 µM.

As for `CC1(C)C=C2c3cc4[nH]c5c(c4cc3C[C@@H]2C(C)(C)O1)C[C@@H]1CC[C@@]2(O)C3=CC(=O)[C@@H](C(C)(C)O)O[C@@]3(O)CC[C@]2(C)[C@@]51C`, the outcome in the experiment on A549, in the experiment with SGC-7901, in the experiment with K562 and in the experiment with HeLa was inactive. Besides, in experiment [1], the inhibition result is “inactive”.

For the compound `C[C@]12CC[C@@H]3OCC(=O)C=C3[C@]1(O)CC[C@H]1Cc3c([nH]c4ccccc34)[C@@]12C`, the result with A549, in the experiment with SGC-7901, in the experiment on K562 and with HeLa was inactive. In addition, in experiment [1], the inhibition entry was “inactive”. For the same compound, the IC50 in experiment [2] is 27 µM.

With `CC(C)(O)[C@@H]1CC=C2[C@H](CC[C@@]3(C)[C@H]2CC[C@H]2Cc4c([nH]c5ccccc45)[C@@]23C)O1`, the result in the experiment on A549, with SGC-7901, in the experiment with K562 and in the experiment on HeLa was inactive. For the same compound, the inhibition entry in experiment [1] is “inactive”.

In the case of `CC1(C)CC2=C(Cc3cc4c5c([nH]c4cc32)[C@@]2(C)[C@@H](CC[C@@]3(O)C4=CC(=O)[C@@H](C(C)(C)O)O[C@@]4(O)CC[C@@]32C)C5)C(C)(C)O1`, the outcome in the experiment on A549, in the experiment on SGC-7901, with K562 and with HeLa was inactive. Moreover, in experiment [1], the inhibition result is “inactive”.

`CC(C)(O)[C@@H]1OC(=O)C=C2[C@H](CC[C@@]3(C)[C@@]2(O)CC[C@H]2Cc4c([nH]c5ccccc45)[C@@]23C)O1`: the outcome with A549, in the experiment with SGC-7901, with K562 and in the experiment on HeLa was inactive. Also, the inhibition entry in experiment [1] was “inactive”.

For the compound `CC1(C)CC2=C(Cc3cc4c(cc32)NC(=O)[C@@]2(C)[C@@H](CC[C@@]3(O)C5=CC(=O)[C@@H](C(C)(C)O)O[C@H]5CC[C@@]32C)CC4=O)C(C)(C)O1`, the outcome in the experiment on A549, in the experiment with SGC-7901, in the experiment with K562 and in the experiment on HeLa was inactive. In experiment [1], the inhibition entry is “inactive”.
